Results: ChEMBL document CHEMBL1909046, “DrugMatrix in vitro pharmacology data”

Columns and labels:
[1] = target: T1, Type-2 angiotensin II receptor (Homo sapiens, UniProt P50052); format: cell-based; conditions: cho-k1; also: in other assays of this panel Not Active means under 50% inhibition at 10 µM
T1 sequence (P50052 whole entry): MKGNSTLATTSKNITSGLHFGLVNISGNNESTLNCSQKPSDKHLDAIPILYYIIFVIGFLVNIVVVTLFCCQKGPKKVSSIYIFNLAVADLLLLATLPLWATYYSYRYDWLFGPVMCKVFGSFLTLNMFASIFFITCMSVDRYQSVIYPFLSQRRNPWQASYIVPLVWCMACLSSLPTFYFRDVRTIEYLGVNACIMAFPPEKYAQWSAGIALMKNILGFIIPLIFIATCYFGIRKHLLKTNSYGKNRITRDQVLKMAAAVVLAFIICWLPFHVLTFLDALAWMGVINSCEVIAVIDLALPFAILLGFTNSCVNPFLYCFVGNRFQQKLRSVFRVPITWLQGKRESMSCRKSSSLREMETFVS

Nitric oxide synthase 1 = Nitric oxide synthase 1 (Rattus norvegicus, UniProt P29476); format: tissue-based, Cerebellum; also: in other assays of this panel Not Active means under 50% inhibition at 10 µM
Sequence of Nitric oxide synthase 1 (P29476 whole entry): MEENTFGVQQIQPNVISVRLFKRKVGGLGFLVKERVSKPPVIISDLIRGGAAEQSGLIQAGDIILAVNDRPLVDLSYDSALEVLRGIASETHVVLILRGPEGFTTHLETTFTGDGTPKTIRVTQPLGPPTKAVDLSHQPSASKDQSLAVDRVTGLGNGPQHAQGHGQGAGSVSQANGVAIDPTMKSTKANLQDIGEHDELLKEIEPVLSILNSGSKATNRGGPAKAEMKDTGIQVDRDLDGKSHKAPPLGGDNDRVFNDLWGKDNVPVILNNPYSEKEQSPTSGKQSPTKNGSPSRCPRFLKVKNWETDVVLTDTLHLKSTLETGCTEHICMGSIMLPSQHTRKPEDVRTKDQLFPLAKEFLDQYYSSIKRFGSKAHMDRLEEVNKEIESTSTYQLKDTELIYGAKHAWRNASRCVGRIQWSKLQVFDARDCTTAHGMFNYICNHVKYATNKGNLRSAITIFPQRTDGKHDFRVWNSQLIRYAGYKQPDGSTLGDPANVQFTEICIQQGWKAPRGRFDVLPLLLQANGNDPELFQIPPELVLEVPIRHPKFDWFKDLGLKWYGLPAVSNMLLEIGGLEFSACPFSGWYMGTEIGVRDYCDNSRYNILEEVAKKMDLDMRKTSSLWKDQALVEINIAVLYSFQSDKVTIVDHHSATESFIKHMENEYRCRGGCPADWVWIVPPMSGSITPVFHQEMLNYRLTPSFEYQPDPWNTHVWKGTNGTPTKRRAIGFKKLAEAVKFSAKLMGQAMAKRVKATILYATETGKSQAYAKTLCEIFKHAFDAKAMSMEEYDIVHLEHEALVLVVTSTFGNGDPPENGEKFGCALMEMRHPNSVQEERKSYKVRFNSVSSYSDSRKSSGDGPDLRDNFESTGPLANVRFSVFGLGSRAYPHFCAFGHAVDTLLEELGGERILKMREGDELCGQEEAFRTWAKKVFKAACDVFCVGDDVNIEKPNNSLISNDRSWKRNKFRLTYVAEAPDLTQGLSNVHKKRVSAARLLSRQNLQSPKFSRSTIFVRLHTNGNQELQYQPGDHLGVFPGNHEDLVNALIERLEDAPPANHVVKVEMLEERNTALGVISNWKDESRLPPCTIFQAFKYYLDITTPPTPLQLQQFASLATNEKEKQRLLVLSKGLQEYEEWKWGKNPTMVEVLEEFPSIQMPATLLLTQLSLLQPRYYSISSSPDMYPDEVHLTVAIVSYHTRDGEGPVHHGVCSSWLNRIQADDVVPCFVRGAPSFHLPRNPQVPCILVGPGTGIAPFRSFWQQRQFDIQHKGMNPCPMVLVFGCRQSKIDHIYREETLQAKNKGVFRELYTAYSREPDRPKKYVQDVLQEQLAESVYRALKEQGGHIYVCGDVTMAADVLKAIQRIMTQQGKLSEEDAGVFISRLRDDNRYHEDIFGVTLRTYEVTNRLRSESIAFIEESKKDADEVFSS

[2] = target: Kappa-type opioid receptor (Homo sapiens, UniProt P41145); assay: DRUGMATRIX: Opiate kappa (OP2, KOP) radioligand binding (ligand: [3H] Diprenorphine); format: cell membranes, HEK293, Membrane; conditions: hek293; Not Active = under 50% inhibition at 10 µM
Sequence of Kappa-type opioid receptor (P41145 whole entry): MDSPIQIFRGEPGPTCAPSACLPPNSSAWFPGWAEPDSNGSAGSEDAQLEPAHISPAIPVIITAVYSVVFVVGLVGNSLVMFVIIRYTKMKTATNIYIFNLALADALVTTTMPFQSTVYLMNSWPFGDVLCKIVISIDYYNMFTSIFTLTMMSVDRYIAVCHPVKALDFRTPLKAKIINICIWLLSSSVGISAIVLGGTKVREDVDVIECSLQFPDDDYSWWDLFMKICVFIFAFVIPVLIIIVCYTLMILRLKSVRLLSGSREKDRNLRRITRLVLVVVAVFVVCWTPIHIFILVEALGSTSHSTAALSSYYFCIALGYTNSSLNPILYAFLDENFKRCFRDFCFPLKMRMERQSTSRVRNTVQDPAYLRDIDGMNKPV

[3] = DRUGMATRIX: Phorbol Ester radioligand binding (ligand: [3H] PDBu); format: cell membranes, Mus musculus, ICR, Brain, Membrane; conditions: Not Active = under 50% inhibition at 10 µM
[4] = DRUGMATRIX: Phosphodiesterase PDE4 enzyme inhibition (substrate: [3H]cAMP + cAMP); conditions: u-937; Not Active = under 50% inhibition at 10 µM
[5] = target: Mitogen-activated protein kinase 1 (Homo sapiens, UniProt P28482); assay: DRUGMATRIX: Protein Serine/Threonine Kinase, ERK2 enzyme inhibition (substrate: Myelin Basic Protein); design: species or system Escherichia coli; conditions: Not Active = under 50% inhibition at 10 µM
Sequence of Mitogen-activated protein kinase 1 (P28482 whole entry): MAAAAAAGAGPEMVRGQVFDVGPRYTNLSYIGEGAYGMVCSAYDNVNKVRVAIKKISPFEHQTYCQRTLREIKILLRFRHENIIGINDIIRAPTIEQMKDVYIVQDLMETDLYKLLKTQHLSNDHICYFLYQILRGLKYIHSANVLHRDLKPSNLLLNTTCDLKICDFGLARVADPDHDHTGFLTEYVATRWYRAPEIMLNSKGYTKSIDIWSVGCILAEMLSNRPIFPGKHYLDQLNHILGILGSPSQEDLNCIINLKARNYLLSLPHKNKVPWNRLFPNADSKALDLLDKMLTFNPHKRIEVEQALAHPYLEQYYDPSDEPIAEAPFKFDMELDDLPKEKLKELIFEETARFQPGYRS

[6] = target: Receptor tyrosine-protein kinase erbB-2 (Homo sapiens, UniProt P04626); assay: biochemical; format: cell-based, Insect cells;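 also: inhibition of HER2 kinase enzyme activity, measured with Poly(Glu:Tyr) as the phosphorylation substrate; in other assays of this panel Not Active means under 50% inhibition at 10 µM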
Cytochrome P450 2A6 = target: T2, Cytochrome P450 2A6 (Homo sapiens, UniProt P11509); conditions: bti-tn-5b1-4; also: in other assays of this panel Not Active means under 50% inhibition at 10 µM
T2 sequence (P11509 whole entry): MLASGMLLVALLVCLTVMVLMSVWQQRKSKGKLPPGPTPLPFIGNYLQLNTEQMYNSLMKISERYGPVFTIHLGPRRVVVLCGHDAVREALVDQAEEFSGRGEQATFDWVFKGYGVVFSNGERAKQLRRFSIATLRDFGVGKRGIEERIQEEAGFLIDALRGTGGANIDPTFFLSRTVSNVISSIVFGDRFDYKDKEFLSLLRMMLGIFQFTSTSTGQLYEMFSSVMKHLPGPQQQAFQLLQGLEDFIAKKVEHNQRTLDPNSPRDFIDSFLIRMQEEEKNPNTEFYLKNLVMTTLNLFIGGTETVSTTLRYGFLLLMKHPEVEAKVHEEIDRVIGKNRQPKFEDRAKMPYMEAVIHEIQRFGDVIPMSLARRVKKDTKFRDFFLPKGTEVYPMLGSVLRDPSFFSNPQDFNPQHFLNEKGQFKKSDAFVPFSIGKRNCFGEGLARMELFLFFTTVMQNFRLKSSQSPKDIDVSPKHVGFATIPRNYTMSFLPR

Row | Compound | IC50 [1] | IC50 (Nitric oxide synthase 1) | IC50 [2] | IC50 [3] | Ki [3] | IC50 [4] | Ki [4] | IC50 [5] | IC50 ([6]; insect cells) | IC50 (Cytochrome P450 2A6) | Ki (Cytochrome P450 2A6) | IC50 ([5]; read-out: IC50) [nM] | IC50 ([6]; read-out: IC50) [nM] | Ki [1] | Ki (Nitric oxide synthase 1) | Ki [5] | IC50 ([6]; insect cells, read-out: IC50) [nM] | Ki ([6]; insect cells)
1 | COCCc1ccc(OCC(O)CNC(C)C)cc1 (configuration not stated) [METOPROLOL] | Not Active | Not Active | Not Active | Not Active | Not Active | Not Active | Not Active | Not Active | Not Active | Not Active | Not Active |  |  |  |  |  |  | 
2 | COc1cc2nc(N3CCN(C(=O)C4COc5ccccc5O4)CC3)nc(N)c2cc1OC (configuration not stated) [DOXAZOSIN] | Not Active | Not Active | Not Active | Not Active | Not Active | Not Active | Not Active | Not Active | Not Active | Not Active | Not Active |  |  |  |  |  |  | 
3 | NCCCCCC(=O)O [AMINOCAPROIC ACID] | Not Active | Not Active | Not Active | Not Active | Not Active | Not Active | Not Active | Not Active | Not Active | Not Active | Not Active |  |  |  |  |  |  | 
4 | CC(C)(C)NCC(O)c1cc(Cl)c(N)c(Cl)c1 (configuration not stated) [CLENBUTEROL] | Not Active | Not Active |  | Not Active | Not Active | Not Active | Not Active | Not Active | Not Active | Not Active | Not Active |  |  |  |  |  |  | 
5 | CCCN1C[C@H](CSC)C[C@@H]2c3cccc4[nH]cc(c34)C[C@H]21 [PERGOLIDE] | Not Active | Not Active | Not Active | Not Active | Not Active | Not Active | Not Active | Not Active | Not Active | Not Active | Not Active |  |  |  |  |  |  | 
6 | CN(C)C(=O)Oc1cc(OC(=O)N(C)C)cc(C(O)CNC(C)(C)C)c1 (configuration not stated) [BAMBUTEROL] | Not Active | Not Active | Not Active | Not Active | Not Active | Not Active | Not Active | Not Active | Not Active | Not Active | Not Active |  |  |  |  |  |  | 
7 | c1ccc(Nc2ccc(Nc3ccccc3)cc2)cc1 | Not Active | Not Active | Not Active | Not Active | Not Active | Not Active | Not Active | Not Active | Not Active | Not Active | Not Active |  |  |  |  |  |  | 
8 | Cc1cc(C(C#N)c2ccc(Cl)cc2)c(Cl)cc1NC(=O)c1cc(I)cc(I)c1O (configuration not stated) [CLOSANTEL] | Not Active | Not Active | Not Active | Not Active | Not Active | Not Active | Not Active |  |  | Not Active | Not Active | 1430 | 2470 |  |  |  |  | 
9 | Cc1ccc2cc3c(ccc4ccccc43)c3c2c1CC3 [3-METHYLCHOLANTHRENE] | Not Active | Not Active |  | Not Active | Not Active | Not Active | Not Active | Not Active | Not Active | Not Active | Not Active |  |  |  |  |  |  | 
10 | Nc1nc2c(ncn2CCC(CO)CO)c(=O)[nH]1 [PENCICLOVIR] | Not Active | Not Active | Not Active | Not Active | Not Active | Not Active | Not Active | Not Active | Not Active | Not Active | Not Active |  |  |  |  |  |  | 
11 | CC1Cc2ccccc2N1NC(=O)c1ccc(Cl)c(S(N)(=O)=O)c1 (configuration not stated) [INDAPAMIDE] | Not Active | Not Active | Not Active | Not Active | Not Active | Not Active | Not Active | Not Active | Not Active | Not Active | Not Active |  |  |  |  |  |  | 
12 | CADMIUM ACETATE | Not Active | Not Active |  | Not Active | Not Active | Not Active | Not Active | Not Active |  | Not Active | Not Active |  |  | Not Active | Not Active | Not Active | 1190 | 
13 | COc1ccc(C[C@H]2NC[C@H](O)[C@H]2OC(C)=O)cc1 [ANISOMYCIN] | Not Active | Not Active |  | Not Active | Not Active | Not Active | Not Active | Not Active | Not Active | Not Active | Not Active |  |  | Not Active | Not Active | Not Active |  | Not Active
14 | Cc1ccc(/N=C/N(C)/C=N/c2ccc(C)cc2C)c(C)c1 [AMITRAZ] | Not Active | Not Active |  | Not Active | Not Active | Not Active | Not Active | Not Active | Not Active | Not Active | Not Active |  |  |  |  |  |  | 
15 | CN(C)c1nc(N(C)C)nc(N(C)C)n1 [ALTRETAMINE] | Not Active | Not Active | Not Active | Not Active | Not Active | Not Active | Not Active | Not Active | Not Active |  |  |  |  |  |  |  |  | 
16 | N=C(N)NCCN1CCCCCCC1 [GUANETHIDINE] | Not Active | Not Active | Not Active | Not Active | Not Active | Not Active | Not Active | Not Active | Not Active |  |  |  |  |  |  |  |  | 
17 | CN(C)CCCN1c2ccccc2Sc2ccc(Cl)cc21 [CHLORPROMAZINE] | Not Active | Not Active |  | Not Active | Not Active | Not Active | Not Active | Not Active |  | Not Active | Not Active |  | 19400 |  |  |  |  | 
18 | C[C@]12CC[C@@H]3c4ccc(O)cc4CC[C@H]3[C@@H]1CCC2=O [ESTRONE] | Not Active | Not Active | Not Active | Not Active | Not Active | Not Active | Not Active | Not Active | Not Active |  |  |  |  |  |  |  |  | 
19 | Nc1c(Br)cc(Br)cc1CN[C@H]1CC[C@H](O)CC1 [AMBROXOL] | Not Active | Not Active | Not Active | Not Active | Not Active | Not Active | Not Active | Not Active | Not Active |  |  |  |  |  |  |  |  | 
20 | LEAD (II) ACETATE | Not Active | Not Active |  | Not Active | Not Active | Not Active | Not Active | Not Active | Not Active | Not Active | Not Active |  |  | Not Active | Not Active | Not Active |  | Not Active
21 | CC1(C)S[C@@H]2[C@H](NC(=O)Cc3ccccc3)C(=O)N2[C@H]1C(=O)O [PENICILLIN G] | Not Active | Not Active | Not Active | Not Active | Not Active | Not Active | Not Active | Not Active | Not Active |  |  |  |  |  |  |  |  | 
22 | CC1=C2C(=CO[C@H](C)[C@H]2C)C(O)=C(C(=O)O)C1=O [CITRININ] | Not Active | Not Active |  | Not Active | Not Active | Not Active | Not Active | Not Active | Not Active | Not Active | Not Active |  |  |  |  |  |  | 
23 | O=C(O)CCCc1ccc(N(CCCl)CCCl)cc1 [CHLORAMBUCIL] | Not Active | Not Active |  | Not Active | Not Active | Not Active | Not Active | Not Active | Not Active | Not Active | Not Active |  |  |  |  |  |  | 
24 | LIPOPOLYSACCHARIDE E. COLI O55:B5 | Not Active | Not Active |  | Not Active | Not Active | Not Active | Not Active |  |  | Not Active | Not Active | 321 |  | Not Active | Not Active |  | 449 | 
